From paper PMC4826333 (Journal of medicinal chemistry, 2015)

Key:
[1] = system: PC-3, DU-145, LNCaP, and HeLa; assay: Trypan blue cytotoxicity, panel of cancer cell lines; settings: four cancer cell lines; for cytotoxicity as compared with curcumin: 1 and 10 μM
PC-3, DU145, LNCaP, HeLa = assay: Relative potency versus curcumin over the cancer cell lines, WST-1 and TB; type: cell-based, human; settings: in the tested cancer cell lines

| Structure (SMILES) | cytotoxicity as compared with curcumin [1] | times more potent than curcumin (PC-3, DU145, LNCaP, HeLa) | activity at 10 μM concentration [1] |
| --- | --- | --- | --- |
| O=C(/C=C/c1ccc2ccccc2n1)/C=C/c1ccc2ccccc2n1 [Compound 31, (1E,4E)-1,5-Di(quinolin-2-yl)penta-1,4-dien-3-one] | as effective (or slightly more effective) as curcumin |  |  |
| O=C(/C=C/c1cocn1)/C=C/c1cocn1 [Compound 20, (1E,4E)-1,5-Bis(oxazol-4-yl)penta-1,4-dien-3-one] | as effective (or slightly more effective) as curcumin |  |  |
| O=C(/C=C/c1nc2ccccc2s1)/C=C/c1nc2ccccc2s1 [Compound 35, (1E,4E)-1,5-Bis(benzo[d]thiazol-2-yl)penta-1,4-dien-3-one] | as effective (or slightly more effective) as curcumin |  |  |
| Cc1nc(C(F)(F)F)c(/C=C/C(=O)/C=C/c2sc(C)nc2C(F)(F)F)s1 [Compound 24, (1E,4E)-1,5-Bis(2-methyl-4-(trifluoromethyl)thiazol-5-yl)-penta-1,4-dien-3-one] |  | 11–36 times |  |
| O=C(/C=C/c1cccnc1)/C=C/c1cccnc1 [Compound 27, (1E,4E)-1,5-Di(pyridin-3-yl)penta-1,4-dien-3-one] | as effective (or slightly more effective) as curcumin |  |  |
| Cc1nc(/C=C/C(=O)/C=C/c2nc(C)c(-c3ccncc3)s2)sc1-c1ccncc1 [Compound 34, (1E,4E)-1,5-Bis(4-methyl-5-(pyridin-4-yl)thiazol-2-yl)penta-1,4-dien-3-one] | did not show increased or similar cytotoxicity |  | almost inactive |
| Cn1cc(/C=C/C(=O)/C=C/c2cnn(C)c2)cn1 [Compound 17, (1E,4E)-1,5-Bis(1-methyl-1H-pyrazol-4-yl)penta-1,4-dien-3-one] | did not show increased or similar cytotoxicity |  | almost inactive |
| O=C(/C=C/c1cc2ccccc2nc1Cl)/C=C/c1cc2ccccc2nc1Cl [Compound 33, (1E,4E)-1,5-Bis(2-chloroquinolin-3-yl)penta-1,4-dien-3-one] | did not show increased or similar cytotoxicity |  | almost inactive |
| Cn1nc(C(F)(F)F)c(/C=C/C(=O)/C=C/c2c(C(F)(F)F)nn(C)c2Cl)c1Cl [Compound 18, (1E,4E)-1,5-Bis(5-chloro-1-methyl-3-(trifluoromethyl)-1H-pyrazol-4-yl)penta-1,4-dien-3-one] | as effective (or slightly more effective) as curcumin |  |  |
| Cn1cncc1/C=C/C(=O)/C=C/c1cncn1C [Compound 16, (1E,4E)-1,5-Bis(1-methyl-1H-imidazol-5-yl)penta-1,4-dien-3-one] | as effective (or slightly more effective) as curcumin |  |  |
| O=C(/C=C/c1ccnc2ccccc12)/C=C/c1ccnc2ccccc12 [Compound 32, (1E,4E)-1,5-Di(quinolin-4-yl)penta-1,4-dien-3-one] | as effective (or slightly more effective) as curcumin |  |  |
